Source: US12607406B2, “Recombinant virus, composition comprising the same, and uses thereof” (ACADEMIA SINICA, priority 2016, dated 2026)

Experiments:
[1] = tested on: Influenza A virus A/WSN/33 (H1N1) neuraminidase (NA), wild type, SEQ ID NO: 4; format: biochemical
[2] = tested on: Influenza A virus A/WSN/33 (H1N1) neuraminidase (NA) on virus, wild type, SEQ ID NO: 4; format: biochemical

| SMILES | Kcat [1] [s⁻¹] | Km [1] [µM] | Vmax [1] [nM/s] | Km [2] [µM] |
| --- | --- | --- | --- | --- |
| CC(=O)N[C@H]1[C@H]([C@H](O)[C@H](O)CO)O[C@@](O[C@H]2[C@@H](O)[C@@H](CO)O[C@@H](O[C@H]3[C@H](O)[C@@H](NC(C)=O)C(O)O[C@@H]3CO)[C@@H]2O)(C(=O)O)C[C@@H]1O (stereo partly drawn) [3SLN, 3′-sialyl-N-acetyllactosamine] | 688.2 | 125 | 7.04 | 115 |
| CC(=O)N[C@H]1[C@H]([C@H](O)[C@H](O)CO)O[C@@](Oc2ccc3c(C)cc(=O)oc3c2)(C(=O)O)C[C@@H]1O [4-Muα-Neu5Ac, 2-(4-methylumbelliferyl)-α-D-N-acetylneuraminic acid] | 514.3 | 585 | 5.025 | 487 |
| CC(=O)N[C@H]1[C@H]([C@H](O)[C@H](O)CO)O[C@@](OC[C@H]2O[C@@H](O[C@H]3[C@H](O)[C@@H](NC(C)=O)C(O)O[C@@H]3CO)[C@H](O)[C@@H](O)[C@H]2O)(C(=O)O)C[C@@H]1O (stereo partly drawn) [6SLN, 6′-sialyl-N-acetyllactosamine] | 104.2 | 679 | 1.07 | 534 |
